21 compounds from patent publication US20240199647A1, “ANTI-VIRAL COMPOUNDS” (Aligos Therapeutics, Inc., priority 2022, published 2024) can be followed below.

Series [1] concerns SARS-CoV-2 B.1.1.7 lineage. Description: microbe, parasite or virus in culture. It is filed as cell-based.
Series [2] in a line: in vitro. To be noted: human.
A short description of series [3]: Cytotoxicity in HeLa cells without addition of OC43 virus (in parallel). To be noted: human, HeLa cells, without OC43 virus.
Series [4] has as its system human beta-coronavirus OC43. Description: OC43 Coronavirus Assay in HeLa cells (antiviral, cytopathic effect, cell-titer-glo). It counts as cell-based. As to conditions: Betacoronavirus 1, OC43, HeLa, Table B; OC43 coronavirus in HeLa cells, class symbols; read-out: EC50. On the technique in general: Damage to the host cells serves as the signal in cytopathic effect assays.

The target in series [5] is SARS-Cov-2 3CLpro (Severe acute respiratory syndrome coronavirus 2, UniProt P0DTD1). Description: biochemical. As to conditions: Table A, class symbols, read-out: SARS-Cov-2 (IC50).
[6] abbreviates: Severe acute respiratory syndrome coronavirus 2, Table C, SARS-CoV-2 B.1.1.7 in A549-dual_ACE2_TMPRSS2 cells, class symbols, read-out: A549-dual_ACE2_TMPRSS2 (EC50).

pEC50, pIC50: −log10 of the molar value. Where two headings read alike, the source gives them in different places.

For `CN(C(=O)[C@H](CC1CC1)NC(=O)C(F)(F)F)[C@@H](CC1CC1)C(=O)N1C[C@@]2(C[C@H]1C#N)Oc1ccccc1CNC2=O` [Compound 81, (S)—N—((S)-1-((2R,5'S)-5′-cyano-3-oxo-4,5-dihydro-3H-spiro[benzo[f][1,4]oxazepine-2,3′-pyrrolidin]-1′-yl)-3-cyclopropyl-1-oxopropan-2-yl)-3-cyclopropyl-N-methyl-2-(2,2,2-trifluoroacetamido)propenamide], the pEC50 in series [1] (setting [6]) and in series [4] was greater than 7.00 in each case. In addition, the CC50 in series [2] is greater than 1000 nM. Besides, the CC50 at 6 days in series [3] is greater than 10000 nM. The pIC50 – broadly, the negative decadic logarithm of the IC50, by convention in mol/L – in series [5] is greater than 7.70.
As for `C[C@H](NC(=O)C(F)(F)F)C(=O)N(C)[C@@H](CC1CC1)C(=O)N1C[C@@]2(C[C@H]1C#N)Oc1cccc(F)c1NC2=O` [Compound 98], the values for the pEC50 in series [1] (setting [6]) and in series [4] were greater than 7.00 and 6.00 to 7.00, respectively. Besides, the CC50 in series [2] is greater than 1000 nM. The compound further yielded a CC50 at 6 days in series [3] greater than 10000 nM. For the same compound, the pIC50 in series [5] is greater than 7.70.
On to `CN(C(=O)[C@H](CC1CC1)NC(=O)C(F)(F)F)[C@@H](CC1CC1)C(=O)N1C[C@@]2(C[C@H]1C#N)Oc1c(F)cccc1CNC2=O` [Compound 168], for which the pEC50 in series [1] (setting [6]) and in series [4] was greater than 7.00 each time. In addition, the CC50 in series [2] was greater than 1000 nM. This compound registered a CC50 at 6 days in series [3] greater than 10000 nM. Moreover, the pIC50 in series [5] was greater than 7.70.
In the case of `C[C@H](NC(=O)C(F)(F)F)C(=O)N(C)[C@@H](CC1CC1)C(=O)N1C[C@@]2(C[C@H]1C#N)Oc1ccccc1NC2=O` [Compound 160], the pEC50 in series [1] (setting [6]) and in series [4] was greater than 7.00 in each case. The compound further gave a CC50 in series [2] greater than 1000 nM. The compound further had a CC50 at 6 days in series [3] greater than 10000 nM. Moreover, the pIC50 in series [5] was greater than 7.70.
On to `CN(C(=O)[C@H](CC1CC1)NC(=O)C(F)(F)F)[C@@H](CC1CC1)C(=O)N1C[C@@]2(C[C@H]1C#N)Oc1cc(F)cc(C#N)c1NC2=O` (single isomer, unassigned) [Example 35], for which the pEC50 (in general, the EC50 on a negative log10 scale, so that one unit is a factor of ten) in series [1] (setting [6]) is 6.00 to 7.00; in series [4], 5.00 to 6.00. The same compound had a CC50 in series [2] greater than 1000 nM. The CC50 at 6 days in series [3] is greater than 10000 nM. Besides, the pIC50 in series [5] is 6.70 to 7.70.
In the case of `CC(C)C[C@@H](C(=O)N1C[C@@]2(C[C@H]1C#N)CC1(CC1)NC2=O)N(C)C(=O)[C@H](C)NC(=O)C(F)(F)F` [Compound 13, (S)—N—((S)-1-((5R,8S)-8-cyano-10-oxo-7,11-diazadispiro[2.1.4^5.2^3]undecan-7-yl)-4-methyl-1-oxopentan-2-yl)-N-methyl-2-(2,2,2-trifluoroacetamido)propanamide], the pEC50 was 6.00 to 7.00 in series [1] (Severe acute respiratory syndrome coronavirus 2, read-out: A549-dual_ACE2_TMPRSS2 (EC50)) and 6.00 to 7.00 in series [4]. For the same compound, the CC50 in series [2] is greater than 1000 nM. This compound gave a CC50 at 6 days in series [3] greater than 10000 nM. Further, in series [5], the pIC50 was greater than 7.70.
As for `CN(C(=O)C(O)C(C)(C)C)[C@@H](CC1CC1)C(=O)N1C[C@@]2(C[C@H]1C#N)Oc1cc(F)cc(F)c1NC2=O` (stereo partly drawn) [Compound 138], the pEC50 in series [1] (setting [6]) and in series [4] was 6.00 to 7.00 in each case. The same compound returned a CC50 in series [2] greater than 1000 nM. For the same compound, the CC50 at 6 days in series [3] was greater than 10000 nM. Moreover, the pIC50 in series [5] is greater than 7.70.
As for `CC(C)C[C@@H](C(=O)N1C[C@@]2(C[C@H]1C#N)N=C(c1ccccc1)NC2=O)N(C)C(=O)c1cc2c(F)cc(F)cc2[nH]1` [Example 6, N-[(2S)-1-[(5R,8S)-8-cyano-4-oxo-2-phenyl-1,3,7-triazaspiro[4.4]non-1-en-7-yl]-4-methyl-1-oxopentan-2-yl]-4,6-difluoro-N-methyl-1H-indole-2-carboxamide], the pEC50 in series [1] (setting [6]) and in series [4] was 6.00 to 7.00 each time. Also, the CC50 in series [2] was greater than 1000 nM. This compound came in with a CC50 at 6 days in series [3] greater than 10000 nM. In addition, the pIC50 in series [5] is greater than 7.70.
For the compound `CN(C(=O)[C@H](CC1CC1)NC(=O)C(F)(F)F)[C@@H](CC1CC1)C(=O)N1C[C@@]2(C[C@H]1C#N)Oc1ccc(F)c(F)c1NC2=O` [Compound 52], the pEC50 in series [1] (setting [6]) and in series [4] was greater than 7.00 throughout. For the same compound, in series [2], the CC50 was greater than 1000 nM. The same compound displayed a CC50 at 6 days in series [3] greater than 10000 nM. The pIC50 in series [5] is greater than 7.70.
On to `CN(C(=O)[C@H](CC1CC1)NC(=O)C(F)(F)F)C(CC1CC1)C(=O)N1C[C@]2(Cc3ccccc3NC2=O)C[C@H]1C#N` (stereo in doubt) [Example 33, (S)—N—((S)-1-((3S,5S)-5-cyano-2′-oxo-1′,4′-dihydro-2′H-spiro[pyrrolidine-3,3′-quinolin]-1-yl)-3-cyclopropyl-1-oxopropan-2-yl)-3-cyclopropyl-N-methyl-2-(2,2,2-trifluoroacetamido)propanamide], for which the pEC50 in series [1] (setting [6]) is greater than 7.00; in series [4] it was 6.00 to 7.00. In series [2], this compound showed a CC50 greater than 1000 nM. In addition, the CC50 at 6 days in series [3] was greater than 10000 nM. Further, the pIC50 in series [5] was greater than 7.70.
In the case of `C[C@H](NC(=O)C(F)(F)F)C(=O)N(C)[C@@H](CC1CC1)C(=O)N1C[C@@]2(C[C@H]1C#N)Oc1ccccc1CNC2=O` [Compound 163], the pEC50 in series [1] (setting [6]) was 6.00 to 7.00; in series [4], greater than 7.00. The CC50 in series [2] was greater than 1000 nM. The CC50 at 6 days in series [3] was greater than 10000 nM. The pIC50 in series [5] is greater than 7.70.
With `CC(C)C[C@](C)(NC(=O)C(F)(F)F)C(=O)N(C)[C@@H](CC1CC1)C(=O)N1C[C@@]2(C[C@H]1C#N)Oc1cc(F)cc(F)c1NC2=O` [Compound 100], the pEC50 is 6.00 to 7.00 in series [1] (setting [6]) and greater than 7.00 in series [4]. For the same compound, the CC50 in series [2] is greater than 1000 nM. Further, the CC50 at 6 days in series [3] was greater than 10000 nM. Besides, in series [5], the pIC50 is 6.70 to 7.70.
For `CN(C(=O)[C@H](CC1CC1)NC(=O)C(F)(F)F)[C@@H](CC1CC1)C(=O)N1C[C@@]2(C[C@H]1C#N)Oc1cc(F)ccc1CNC2=O` [Compound 142] the same measures were greater than 7.00, greater than 7.00, greater than 1000 nM, greater than 10000 nM and greater than 7.70.
On to `C[C@H](NC(=O)C(F)(F)F)C(=O)N(C)[C@@H](CC1CC1)C(=O)N1C[C@@]2(C[C@H]1C#N)Oc1cc(Cl)cnc1NC2=O` [Compound 147], for which the pEC50 in series [1] (setting [6]) and in series [4] was greater than 7.00 each time. The CC50 in series [2] is greater than 1000 nM. The compound also came in with a CC50 at 6 days in series [3] greater than 10000 nM. For the same compound, the pIC50 in series [5] was greater than 7.70.
Regarding `CN(C(=O)[C@@H](COC(C)(C)C)NC(=O)C(F)(F)F)[C@@H](CC1CC1)C(=O)N1C[C@@]2(C[C@H]1C#N)Oc1cccnc1NC2=O` [Compound 156], the negative-log EC50 (pEC50) in series [1] (setting [6]) is 6.00 to 7.00; in series [4] it was greater than 7.00. Further, the CC50 in series [2] is greater than 1000 nM. In series [3], this compound showed a CC50 at 6 days greater than 10000 nM. In addition, the pIC50 in series [5] was greater than 7.70.
For `CC(C)C[C@@H](C(=O)N1C[C@@]2(C[C@H]1C#N)N=C(C(C)(C)C)NC2=O)N(C)C(=O)[C@H](C)NC(=O)C(F)(F)F` [Compound 47] the same measures were 6.00 to 7.00, 5.00 to 6.00, greater than 1000 nM, greater than 10000 nM and 6.70 to 7.70.
Turning to `CN(C(=O)c1cnc(C(F)(F)F)[nH]1)[C@@H](CC1CC1)C(=O)N1C[C@@]2(C[C@H]1C#N)Oc1cc(F)cc(F)c1NC2=O` [Compound 171], the pEC50 in series [1] (Severe acute respiratory syndrome coronavirus 2, Table C, SARS-CoV-2 B.1.1.7 in A549-dual_ACE2_TMPRSS2 cells, cells given as a bound, read-out: A549-dual_ACE2_TMPRSS2 (EC50)) is less than 6.00; in series [4], 5.00 to 6.00. This compound returned a CC50 in series [2] greater than 1000 nM. In series [3], the CC50 at 6 days is greater than 10000 nM. Besides, the pIC50 in series [5] is 6.70 to 7.70.
As to `CN(C(=O)[C@@H](CC1CC1)n1cc(C2CC2)nn1)[C@@H](CC1CC1)C(=O)N1C[C@@]2(C[C@H]1C#N)Oc1cc(F)cc(F)c1NC2=O` [Compound 107, (R)—N—((S)-1-((2R,5'S)-5′-cyano-5,7-difluoro-3-oxo-3,4-dihydrospiro[benzo[b][1,4]oxazine-2,3′-pyrrolidin]-1′-yl)-3-cyclopropyl-1-oxopropan-2-yl)-3-cyclopropyl-2-(4-cyclopropyl-1H-1,2,3-triazol-1-yl)-N-methylpropanamide], the pEC50 is 6.00 to 7.00 in series [1] (setting [6]) and 5.00 to 6.00 in series [4]. In series [2], this compound yielded a CC50 greater than 1000 nM. In series [3], this compound returned a CC50 at 6 days greater than 10000 nM. Besides, the pIC50 in series [5] was greater than 7.70.
For `C[C@H](NC(=O)C(F)(F)C(F)(F)F)C(=O)N(C)[C@@H](CC1CC1)C(=O)N1C[C@@]2(C[C@H]1C#N)Oc1cccnc1NC2=O` [Compound 170] the same measures were greater than 7.00, greater than 7.00, greater than 1000 nM, greater than 10000 nM and greater than 7.70.
Turning to `C[C@H](NC(=O)c1ccc(F)cc1)C(=O)N(C)[C@@H](CC1CC1)C(=O)N1C[C@@]2(C[C@H]1C#N)Oc1cccnc1NC2=O` [Compound 195], the pEC50 in series [1] (setting [6]) and in series [4] was 6.00 to 7.00 in each case. Moreover, in series [2], the CC50 was greater than 1000 nM. Further, in series [3], the CC50 at 6 days is greater than 10000 nM. In addition, the pIC50 in series [5] is greater than 7.70.
Take `CN(C(=O)[C@H](CC1CC1)NC(=O)C(F)(F)F)[C@@H](CC1CC1)C(=O)N1C[C@@]2(C[C@H]1C#N)Oc1ccccc1NC2=O` [Compound 182]: the pEC50 in series [1] (setting [6]) and in series [4] was greater than 7.00 each time. The compound also gave a CC50 in series [2] greater than 1000 nM. The compound further yielded a CC50 at 6 days in series [3] greater than 10000 nM. Besides, the pIC50 in series [5] is greater than 7.70.
